Measurements as given in ChEMBL document CHEMBL1201862, “PubChem BioAssay data set” (2004).
Calls of active or inactive are those of the source.

Columns and labels:
Coagulation factor XII = target: T1, Coagulation factor XII (Homo sapiens, UniProt P00748); assay: Factor XIIa Dose Response Confirmation from Single Well HTS. [Related pubchem assays (depositor defined):AID701]; assay type: functional
T1 sequence (P00748 whole entry): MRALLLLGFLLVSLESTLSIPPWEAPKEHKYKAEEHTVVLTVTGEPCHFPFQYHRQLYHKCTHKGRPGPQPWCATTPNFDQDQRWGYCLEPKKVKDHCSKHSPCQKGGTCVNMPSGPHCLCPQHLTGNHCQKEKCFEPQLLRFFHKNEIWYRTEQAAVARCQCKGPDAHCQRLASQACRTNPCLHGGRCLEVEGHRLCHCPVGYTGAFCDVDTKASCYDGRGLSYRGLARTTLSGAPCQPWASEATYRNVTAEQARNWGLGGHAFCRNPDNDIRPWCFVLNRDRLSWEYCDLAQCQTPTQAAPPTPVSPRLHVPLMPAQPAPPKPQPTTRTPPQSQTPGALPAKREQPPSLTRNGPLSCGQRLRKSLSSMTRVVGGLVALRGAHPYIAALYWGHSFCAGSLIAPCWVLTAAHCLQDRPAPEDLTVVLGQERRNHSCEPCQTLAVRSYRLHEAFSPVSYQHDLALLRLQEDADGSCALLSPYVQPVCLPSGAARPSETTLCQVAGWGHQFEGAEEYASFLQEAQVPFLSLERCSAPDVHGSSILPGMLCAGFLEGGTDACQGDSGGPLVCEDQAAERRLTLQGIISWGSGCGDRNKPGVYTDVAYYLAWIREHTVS

[1] = inhibitors of firefly luciferase expression or activity, dose response, H4 neuroglioma cells, luminescence (AID 1990); assay type: functional, cell-based
[2] = tested on: Streptococcus sp. 'group A'; assay: growth inhibition of control SK(-) GAS strain, dose response, counter-screen for streptokinase expression inhibitor project, luminescence, kanamycin, BacTiterGlo, confirmation (AID 1900); assay type: functional, organism-based
[3] = Luminescence Cell-Based Dose Response HTS to Identify Inhibitors of 5'UTR Stem-Loop Driven Prion Protein mRNA Translation in H4 Neuroglioblastoma Cells. [Related pubchem assays: 1827 (Project Summary), 1813 (Primary HTS)]; assay type: functional
[4] = inhibitors of SNCA 5'UTR-driven reporter translation, confirmation, H4 neuroglioma cells, luminescence (AID 1988); assay type: functional, cell-based
Streptokinase A = target: T2, Streptokinase A (Streptococcus pyogenes serotype M1, UniProt P10520); assay: S. pyogenes streptokinase expression inhibitors, potency, dose response, plasminogen activation absorbance, OD405 (AID 1914); assay type: functional, Streptococcus pyogenes M1 GAS;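 also: secreted streptokinase activity via plasminogen activation per viability signal from cell pellet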
T2 sequence (P10520 whole entry): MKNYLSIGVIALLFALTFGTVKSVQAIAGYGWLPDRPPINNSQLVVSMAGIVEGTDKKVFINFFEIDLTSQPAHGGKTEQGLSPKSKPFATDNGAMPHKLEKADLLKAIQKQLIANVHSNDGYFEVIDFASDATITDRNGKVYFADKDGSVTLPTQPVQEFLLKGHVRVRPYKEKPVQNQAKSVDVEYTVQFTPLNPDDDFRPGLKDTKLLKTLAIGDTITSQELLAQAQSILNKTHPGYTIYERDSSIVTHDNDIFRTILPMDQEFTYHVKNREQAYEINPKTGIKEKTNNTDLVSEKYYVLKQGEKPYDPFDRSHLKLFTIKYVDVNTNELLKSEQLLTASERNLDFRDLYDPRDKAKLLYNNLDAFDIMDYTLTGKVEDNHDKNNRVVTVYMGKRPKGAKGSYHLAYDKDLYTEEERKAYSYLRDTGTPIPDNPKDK

[5] = inhibitors of intracellular T. cruzi replication, confirmation, NIH3T3 host cells, beta-gal luminescence (AID 2044); assay type: functional, cell-based;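 also: intracellular parasites grown in NIH/3T3 mouse fibroblasts as host cells; luminescent beta-galactosidase reporter signal from transgenic T. cruzi replicating inside host cells; inhibitors lower the luminescence signal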
[6] = microbe, parasite or virus in culture; assay type: functional; details: Mycobacterium tuberculosis
[7] = growth suppression of PTEN-null colon cells, dose response, cell-based, HCT116 PTEN knockout (AID 1047); assay type: functional;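 also: HCT116 colon tumor cells with PTEN knocked out; cells exposed to compound for 60 hours before readout; potency for loss of cell viability measured by luminescence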
[8] = cytotoxicity toward NIH3T3 fibroblasts, dose response, counter-screen, cell-based, ATP luminescence, mouse fibroblasts (AID 2010); assay type: functional;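 also: cells exposed to compound for about 90 hours before reading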
[9] = growth suppression of beta-catenin-knockout colon cells, dose response, cell-based, HCT116, human colon tumor (AID 1045); assay type: functional;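 also: HCT116 colon tumor cells with beta catenin knocked out; cells exposed to compound for 60 hours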
Streptococcus = assay: Group A Streptococcus viability loss, dose response, counter-screen for streptokinase expression inhibitor project, luminescence, BacTiterGlo (AID 1915); assay type: functional, organism-based;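 also: potency for reduction of bacterial viability or growth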
[10] = target: Glucose-6-phosphate 1-dehydrogenase (Homo sapiens, UniProt P11413); assay: human G6PD enzyme inhibitors, dose response, selectivity assay for P. falciparum G6PD inhibitor project, biochemical, fluorescence (AID 504792); assay type: functional
[11] = Intein inhibitors as potential Tuberculosis drugs, a cytotoxicity screen. [Related pubchem assays (depositor defined):AID2221, AID2223, AID434968, AID435010, AID449749, AID449750, AID489010]; assay type: functional
[12] = target: T3, Replicative DNA helicase DnaB (Mycobacterium tuberculosis, UniProt P9WMR3); assay: DnaB intein splicing inhibitors, dose response, biochemical, cell-free fluorescence (AID 449749); assay type: functional
T3 sequence (P9WMR3 whole entry): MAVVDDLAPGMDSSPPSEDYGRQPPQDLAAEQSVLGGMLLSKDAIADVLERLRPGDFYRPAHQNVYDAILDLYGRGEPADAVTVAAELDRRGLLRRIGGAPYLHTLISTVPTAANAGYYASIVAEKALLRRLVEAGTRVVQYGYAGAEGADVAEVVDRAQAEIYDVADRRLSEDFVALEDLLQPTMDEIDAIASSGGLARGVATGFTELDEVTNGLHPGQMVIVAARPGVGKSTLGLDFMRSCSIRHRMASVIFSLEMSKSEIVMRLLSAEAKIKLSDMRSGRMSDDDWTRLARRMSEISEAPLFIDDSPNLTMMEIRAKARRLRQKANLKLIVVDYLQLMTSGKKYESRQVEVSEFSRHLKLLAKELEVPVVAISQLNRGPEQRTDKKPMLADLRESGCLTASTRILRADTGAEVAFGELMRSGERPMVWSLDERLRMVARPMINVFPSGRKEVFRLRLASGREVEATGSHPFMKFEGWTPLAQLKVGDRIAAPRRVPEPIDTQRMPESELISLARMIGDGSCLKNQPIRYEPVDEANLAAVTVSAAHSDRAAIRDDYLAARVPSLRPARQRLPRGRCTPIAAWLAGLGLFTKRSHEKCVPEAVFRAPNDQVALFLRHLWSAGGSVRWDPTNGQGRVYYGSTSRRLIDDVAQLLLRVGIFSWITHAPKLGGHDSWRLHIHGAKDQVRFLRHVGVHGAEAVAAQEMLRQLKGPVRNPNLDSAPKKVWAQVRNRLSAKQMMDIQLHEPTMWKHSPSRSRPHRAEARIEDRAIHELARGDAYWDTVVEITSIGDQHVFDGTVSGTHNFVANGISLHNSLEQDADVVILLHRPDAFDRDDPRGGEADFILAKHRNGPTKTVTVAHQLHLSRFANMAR

Protein RecA = target: T4, Protein RecA (Mycobacterium tuberculosis, UniProt P9WHJ3); assay: Fluorescence Cell-Free Homogeneous Dose Retest to Identify Inhibitors of RecA-Intein Splicing Activity. [Related pubchem assays (depositor defined):AID2097, AID2223, AID489010, AID492950]; assay type: functional
T4 sequence (P9WHJ3 whole entry): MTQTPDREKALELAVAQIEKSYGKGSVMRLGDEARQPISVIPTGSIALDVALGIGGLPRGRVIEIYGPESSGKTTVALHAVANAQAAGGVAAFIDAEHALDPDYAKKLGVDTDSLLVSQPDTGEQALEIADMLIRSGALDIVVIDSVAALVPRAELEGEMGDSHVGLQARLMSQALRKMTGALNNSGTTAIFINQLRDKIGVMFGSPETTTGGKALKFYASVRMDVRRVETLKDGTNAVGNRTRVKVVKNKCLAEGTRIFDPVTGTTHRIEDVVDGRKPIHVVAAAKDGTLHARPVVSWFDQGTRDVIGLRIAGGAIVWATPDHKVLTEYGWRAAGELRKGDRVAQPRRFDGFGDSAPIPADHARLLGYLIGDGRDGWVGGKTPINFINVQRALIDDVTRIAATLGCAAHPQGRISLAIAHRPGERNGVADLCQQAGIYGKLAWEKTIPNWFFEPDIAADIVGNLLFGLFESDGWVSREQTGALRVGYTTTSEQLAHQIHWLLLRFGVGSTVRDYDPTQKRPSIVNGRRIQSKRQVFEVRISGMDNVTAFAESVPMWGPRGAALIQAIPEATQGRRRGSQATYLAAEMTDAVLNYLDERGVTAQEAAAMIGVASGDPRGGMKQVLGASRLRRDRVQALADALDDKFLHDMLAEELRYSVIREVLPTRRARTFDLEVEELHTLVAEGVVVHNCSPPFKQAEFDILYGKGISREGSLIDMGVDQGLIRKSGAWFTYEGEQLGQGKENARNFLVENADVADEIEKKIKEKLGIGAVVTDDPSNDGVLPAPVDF

[13] = target: Photoreceptor-specific nuclear receptor (Homo sapiens, UniProt Q9Y5X4); assay type: functional, cell-based;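 also: CHO-S cells with Gal4-NCOR and VP16-NR2E3 two-hybrid luciferase reporter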
[14] = target: T5, E3 ubiquitin-protein ligase XIAP (Homo sapiens, UniProt P98170); assay: Counter Screen using XIAP-Bir3 for Chemical Antagonists of Bir1/2 domains of IAP-family anti-apoptotic proteins. [Related pubchem assays (depositor defined):AID1018, AID1449, AID1514, AID1638, AID1749, AID1750, AID488957, AID488963]
[15] = target: T5, E3 ubiquitin-protein ligase XIAP; assay: XIAP antagonists, biochemical, IAP family, fluorescence polarization (AID 1018); assay type: functional
[16] = target: Intestinal-type alkaline phosphatase (Mus musculus, UniProt P24822); assay: PubChem AID 488875; assay type: functional
[17] = target: T6, Intestinal-type alkaline phosphatase (Homo sapiens, UniProt P09923); assay: human intestinal alkaline phosphatase activators, dose response, biochemical, luminescence, uHTS hits (AID 463120); assay type: functional
[18] = target: Alkaline phosphatase, placental type (Homo sapiens, UniProt P05187); assay: PLAP enzyme inhibitors, confirmation, biochemical, luminescence (AID 1512); assay type: functional
[19] = target: T6, Intestinal-type alkaline phosphatase; assay: human IAP activators, dose response, biochemical, luminescent, uHTS hits, set 2 (AID 488817); assay type: functional;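 also: potency of activators that raise enzyme activity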
[20] = target: T7, Runt-related transcription factor 1/Core-binding factor subunit beta (Homo sapiens, UniProt Q01196+Q13951); assay: inhibitors of RUNX1 Runt–CBFb-SMMHC binding, primary screen, biochemical, FRET, Cerulean-Runt, Venus-CBFb-SMMHC, uHTS (AID 1434); assay type: protein assay;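 also: partner is the CBFb-SMMHC leukemia fusion protein rather than wild-type CBFb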
[21] = target: T7, Runt-related transcription factor 1/Core-binding factor subunit beta; assay: inhibitors of RUNX1 Runt–CBFb-SMMHC binding, biochemical, TR-FRET (AID 1438); assay type: protein assay
Integrin alpha-L = Integrin alpha-L (Mus musculus, UniProt P24063); assay: modulators of CD8 T cell-vesicle binding, dose response, powder samples, mouse 2C CD8+ cells (AID 504565); assay type: functional
T-cell = assay: inhibitors of CD8+ T cell–vesicle binding, dose response, mouse 2C CD8+ T cells, flow cytometry (AID 485284); assay type: functional
[22] = Shn3 3'UTR reporter inhibitors, dose response, cell-based, Clone20 osteoblasts, firefly luciferase, cherry-picked (AID 624132); assay type: functional;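 also: firefly luciferase luminescence from reporter carrying the Shn3 3'UTR in osteoblasts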
[23] = control 3'UTR Renilla luciferase suppression, dose response, counter-screen for Shn3 inhibitor project, cell-based, Clone20-Shn3RL, cherry-picked (AID 624133); assay type: functional
[24] = target: T8, Type-1 angiotensin II receptor (Homo sapiens, UniProt P30556); assay: AT1 receptor agonists, dose response, selectivity assay for APJ receptor agonist project, cell-based, uHTS hits (AID 488865); assay type: functional;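 also: beta-arrestin recruitment to AT1 measured by enzyme fragment complementation luminescence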
T8 sequence (P30556 whole entry): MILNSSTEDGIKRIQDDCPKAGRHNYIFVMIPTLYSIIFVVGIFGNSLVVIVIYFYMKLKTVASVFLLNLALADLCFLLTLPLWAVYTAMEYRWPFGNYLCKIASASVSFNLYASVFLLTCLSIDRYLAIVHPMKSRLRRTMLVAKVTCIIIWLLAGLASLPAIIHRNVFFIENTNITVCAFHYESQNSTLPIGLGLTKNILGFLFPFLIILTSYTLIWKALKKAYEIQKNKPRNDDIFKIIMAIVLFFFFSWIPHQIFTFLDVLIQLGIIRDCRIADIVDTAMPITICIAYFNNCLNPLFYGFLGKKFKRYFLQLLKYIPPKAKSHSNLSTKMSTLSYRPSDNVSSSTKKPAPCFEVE

T7 sequence (Q01196 whole entry, the tested form may be a part): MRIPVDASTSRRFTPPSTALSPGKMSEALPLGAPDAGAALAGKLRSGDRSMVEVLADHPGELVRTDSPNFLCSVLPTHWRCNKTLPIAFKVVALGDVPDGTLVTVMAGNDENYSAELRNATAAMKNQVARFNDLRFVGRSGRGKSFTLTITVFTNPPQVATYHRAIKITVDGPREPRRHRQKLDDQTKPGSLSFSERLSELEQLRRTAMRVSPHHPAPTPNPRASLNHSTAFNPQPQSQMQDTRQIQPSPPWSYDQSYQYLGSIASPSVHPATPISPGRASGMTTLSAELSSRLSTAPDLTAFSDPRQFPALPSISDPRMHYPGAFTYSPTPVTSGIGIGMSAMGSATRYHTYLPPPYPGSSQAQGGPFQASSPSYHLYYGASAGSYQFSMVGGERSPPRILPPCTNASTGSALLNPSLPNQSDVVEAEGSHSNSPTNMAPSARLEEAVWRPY
T7 sequence (Q13951 whole entry, the tested form may be a part): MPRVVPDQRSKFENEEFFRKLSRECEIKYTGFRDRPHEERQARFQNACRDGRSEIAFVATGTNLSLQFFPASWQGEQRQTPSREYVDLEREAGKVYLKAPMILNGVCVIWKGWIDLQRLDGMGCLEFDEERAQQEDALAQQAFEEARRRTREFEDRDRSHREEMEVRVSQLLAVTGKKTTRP
T6 sequence (P09923 whole entry): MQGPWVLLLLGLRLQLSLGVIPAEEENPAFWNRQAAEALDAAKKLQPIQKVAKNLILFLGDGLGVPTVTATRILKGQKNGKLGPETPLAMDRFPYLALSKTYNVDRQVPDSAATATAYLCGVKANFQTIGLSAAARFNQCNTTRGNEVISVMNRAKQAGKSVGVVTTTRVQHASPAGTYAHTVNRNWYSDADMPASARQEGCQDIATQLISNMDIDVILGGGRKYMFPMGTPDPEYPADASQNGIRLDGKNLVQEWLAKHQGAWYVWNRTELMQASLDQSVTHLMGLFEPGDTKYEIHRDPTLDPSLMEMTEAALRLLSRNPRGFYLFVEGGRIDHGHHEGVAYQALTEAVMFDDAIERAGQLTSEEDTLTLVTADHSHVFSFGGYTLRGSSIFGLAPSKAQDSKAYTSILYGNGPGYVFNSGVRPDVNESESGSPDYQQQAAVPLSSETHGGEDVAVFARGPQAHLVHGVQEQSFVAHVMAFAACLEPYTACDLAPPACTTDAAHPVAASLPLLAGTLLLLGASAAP
T5 sequence (P98170 whole entry): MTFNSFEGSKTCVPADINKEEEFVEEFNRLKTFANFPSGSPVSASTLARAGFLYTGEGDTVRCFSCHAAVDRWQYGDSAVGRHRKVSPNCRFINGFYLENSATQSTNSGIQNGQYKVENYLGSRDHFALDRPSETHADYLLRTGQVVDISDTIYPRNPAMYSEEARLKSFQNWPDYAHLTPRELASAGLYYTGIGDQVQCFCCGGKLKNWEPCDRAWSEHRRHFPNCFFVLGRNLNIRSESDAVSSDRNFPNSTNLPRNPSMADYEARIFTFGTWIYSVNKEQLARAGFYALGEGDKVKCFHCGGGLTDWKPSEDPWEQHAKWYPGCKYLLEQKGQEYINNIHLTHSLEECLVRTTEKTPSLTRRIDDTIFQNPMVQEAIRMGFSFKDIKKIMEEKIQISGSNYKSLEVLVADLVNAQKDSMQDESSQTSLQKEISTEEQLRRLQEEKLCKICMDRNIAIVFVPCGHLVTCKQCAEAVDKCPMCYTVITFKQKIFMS
Sequence of Glucose-6-phosphate 1-dehydrogenase (P11413 whole entry): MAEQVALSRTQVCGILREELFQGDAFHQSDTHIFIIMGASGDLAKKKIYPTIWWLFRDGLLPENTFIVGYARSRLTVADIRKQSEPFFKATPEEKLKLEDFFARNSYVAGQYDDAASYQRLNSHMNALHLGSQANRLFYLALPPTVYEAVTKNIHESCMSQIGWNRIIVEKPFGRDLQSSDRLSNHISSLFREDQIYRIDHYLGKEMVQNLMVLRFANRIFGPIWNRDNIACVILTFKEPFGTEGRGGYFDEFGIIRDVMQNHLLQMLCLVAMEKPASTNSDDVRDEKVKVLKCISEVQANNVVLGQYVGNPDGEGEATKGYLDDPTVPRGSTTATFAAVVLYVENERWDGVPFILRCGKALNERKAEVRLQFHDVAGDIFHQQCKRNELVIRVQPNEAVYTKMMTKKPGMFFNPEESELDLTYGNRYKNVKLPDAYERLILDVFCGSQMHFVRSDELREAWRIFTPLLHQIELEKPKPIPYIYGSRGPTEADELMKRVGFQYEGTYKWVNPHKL
Sequence of Integrin alpha-L (P24063 whole entry): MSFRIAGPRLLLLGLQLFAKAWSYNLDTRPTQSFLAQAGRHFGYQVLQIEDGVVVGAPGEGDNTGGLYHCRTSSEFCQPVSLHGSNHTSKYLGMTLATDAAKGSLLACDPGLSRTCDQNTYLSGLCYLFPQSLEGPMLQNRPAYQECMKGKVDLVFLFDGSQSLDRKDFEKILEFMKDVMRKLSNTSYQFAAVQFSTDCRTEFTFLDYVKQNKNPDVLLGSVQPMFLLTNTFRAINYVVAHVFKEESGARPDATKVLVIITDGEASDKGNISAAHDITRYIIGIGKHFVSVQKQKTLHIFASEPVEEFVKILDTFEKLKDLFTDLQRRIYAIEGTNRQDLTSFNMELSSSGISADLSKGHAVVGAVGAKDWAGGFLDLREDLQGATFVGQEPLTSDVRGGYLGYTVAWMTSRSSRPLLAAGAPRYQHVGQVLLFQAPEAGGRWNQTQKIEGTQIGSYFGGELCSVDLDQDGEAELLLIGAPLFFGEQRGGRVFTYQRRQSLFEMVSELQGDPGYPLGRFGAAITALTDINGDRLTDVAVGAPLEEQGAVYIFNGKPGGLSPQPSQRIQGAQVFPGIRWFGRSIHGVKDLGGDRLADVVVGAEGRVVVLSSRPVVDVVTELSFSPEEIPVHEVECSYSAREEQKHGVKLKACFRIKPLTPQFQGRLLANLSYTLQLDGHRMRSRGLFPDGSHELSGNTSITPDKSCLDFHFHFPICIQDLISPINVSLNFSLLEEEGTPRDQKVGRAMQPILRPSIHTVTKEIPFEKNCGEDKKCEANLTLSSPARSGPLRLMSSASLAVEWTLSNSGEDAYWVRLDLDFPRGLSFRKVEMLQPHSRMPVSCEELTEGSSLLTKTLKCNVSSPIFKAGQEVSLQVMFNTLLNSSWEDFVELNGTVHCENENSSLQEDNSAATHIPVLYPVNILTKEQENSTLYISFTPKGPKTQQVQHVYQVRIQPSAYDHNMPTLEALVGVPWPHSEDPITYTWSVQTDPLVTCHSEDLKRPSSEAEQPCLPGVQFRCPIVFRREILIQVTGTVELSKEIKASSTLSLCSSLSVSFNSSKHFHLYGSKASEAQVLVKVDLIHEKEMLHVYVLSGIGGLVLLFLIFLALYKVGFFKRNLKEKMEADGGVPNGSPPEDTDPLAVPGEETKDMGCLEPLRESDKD
Sequence of Intestinal-type alkaline phosphatase (Mus musculus, UniProt P24822) (P24822 whole entry): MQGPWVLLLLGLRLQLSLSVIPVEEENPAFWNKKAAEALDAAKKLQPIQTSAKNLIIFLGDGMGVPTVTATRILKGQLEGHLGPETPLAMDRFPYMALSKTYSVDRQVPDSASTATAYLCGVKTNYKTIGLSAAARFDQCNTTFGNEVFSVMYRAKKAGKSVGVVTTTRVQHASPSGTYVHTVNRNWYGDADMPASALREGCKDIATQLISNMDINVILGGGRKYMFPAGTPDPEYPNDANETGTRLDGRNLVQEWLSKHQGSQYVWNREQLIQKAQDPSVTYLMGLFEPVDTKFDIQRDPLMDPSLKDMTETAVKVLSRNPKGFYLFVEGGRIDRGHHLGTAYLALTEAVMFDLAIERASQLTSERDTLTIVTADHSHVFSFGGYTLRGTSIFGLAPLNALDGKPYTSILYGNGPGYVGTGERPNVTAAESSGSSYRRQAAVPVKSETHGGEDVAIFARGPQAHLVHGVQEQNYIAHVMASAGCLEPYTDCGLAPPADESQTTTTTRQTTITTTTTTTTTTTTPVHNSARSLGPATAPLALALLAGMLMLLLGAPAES
Sequence of Alkaline phosphatase, placental type (P05187 whole entry): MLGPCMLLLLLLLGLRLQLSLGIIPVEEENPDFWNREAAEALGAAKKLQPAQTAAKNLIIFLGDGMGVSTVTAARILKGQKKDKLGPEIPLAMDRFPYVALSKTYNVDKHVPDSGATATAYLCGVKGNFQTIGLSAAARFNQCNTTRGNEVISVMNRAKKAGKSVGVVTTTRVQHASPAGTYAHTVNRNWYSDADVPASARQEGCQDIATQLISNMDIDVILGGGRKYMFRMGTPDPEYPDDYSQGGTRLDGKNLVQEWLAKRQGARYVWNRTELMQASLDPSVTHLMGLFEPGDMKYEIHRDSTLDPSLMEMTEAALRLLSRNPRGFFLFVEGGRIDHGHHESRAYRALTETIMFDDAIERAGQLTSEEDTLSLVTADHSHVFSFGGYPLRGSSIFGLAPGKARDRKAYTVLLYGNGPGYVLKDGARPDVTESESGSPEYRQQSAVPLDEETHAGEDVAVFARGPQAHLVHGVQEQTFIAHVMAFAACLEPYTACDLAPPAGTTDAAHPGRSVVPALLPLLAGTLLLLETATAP
Sequence of Photoreceptor-specific nuclear receptor (Q9Y5X4 whole entry, the tested form may be a part): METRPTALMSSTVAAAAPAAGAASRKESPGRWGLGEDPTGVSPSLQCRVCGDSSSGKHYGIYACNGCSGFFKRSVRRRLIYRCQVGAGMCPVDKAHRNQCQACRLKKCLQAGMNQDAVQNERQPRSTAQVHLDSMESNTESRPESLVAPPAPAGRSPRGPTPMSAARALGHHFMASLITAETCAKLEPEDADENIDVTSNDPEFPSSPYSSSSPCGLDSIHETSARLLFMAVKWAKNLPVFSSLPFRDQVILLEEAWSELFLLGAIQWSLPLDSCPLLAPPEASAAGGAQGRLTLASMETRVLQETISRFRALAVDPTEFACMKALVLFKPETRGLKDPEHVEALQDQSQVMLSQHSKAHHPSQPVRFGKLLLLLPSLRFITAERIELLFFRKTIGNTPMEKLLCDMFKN

O=C1N=C(c2ccccc2)S/C1=C\c1cccs1
IC50 (Coagulation factor XII): > 50 µM (inactive)

COc1ccc(C(=O)c2c(C(F)(F)F)oc3c2C(=O)c2ccccc2C3=O)cc1OC
EC50 [1]: > 120 µM (not active) | EC50 [2]: 0.514 µM (active) | EC50 [3]: > 120 µM (not active) | EC50 [4]: 8.35 µM (active) | EC50 (Streptokinase A): > 150 µM (not active) | EC50 [5]: 0.884 µM (active) | CC50 [6]: 6.08 µM (active) | EC50 [7]: 2.34 µM (active) | EC50 [8]: 5.27 µM (active) | EC50 [9]: 2.23 µM (active) | EC50 (Streptococcus): 8.91 µM (active) | IC50 [10]: > 80 µM (inactive) | CC50 [11]: 5.78 µM (active) | AC50 [12]: 4.74 µM (active) | EC50 (Protein RecA): 2.02 µM (active) | IC50 [13]: 1.99 µM (active)

CC(C)C(NC(=O)CN1C(=O)c2ccccc2S1(=O)=O)C(C)C
IC50 [14]: > 100 µM (inactive) | IC50 [15]: > 100 µM (not active)

Cc1cc(C)cc(OCC(=O)NNC(=O)c2cc(C)n[nH]2)c1
EC50 [16]: > 100 µM (inactive) | EC50 [17]: 12.7 µM (active) | IC50 [18]: > 100 µM (inactive) | EC50 [19]: 16.1 µM (active)

Cc1cc2n(n1)C(c1ccc(N(C)C)cc1)Nc1ccccc1-2 (stereo not given)
IC50 [20]: 48.3 µM (active) | IC50 [21]: > 100 µM (inactive)

COCc1c(C(=O)Nc2cccc(S(=O)(=O)N3CCCCC3)c2)oc2ccccc12
EC50 (Integrin alpha-L): 24.7 µM (inactive) | EC50 (T-cell): 50.8 µM (inactive) | AC50 [22]: 9.63 µM (active) | AC50 [23]: 26.4 µM (active)

CCN1C(c2ccccc2)=C(c2ccccc2)S/C1=C\C=C1/SC(=S)N(C)C1=O
EC50 [24]: 7.44 µM (active)
